Data reported in ChEMBL document CHEMBL4261654, “Synthesis and in vitro antitumor activity of novel alkenyl derivatives of pyridoxine, bioisosteric analogs of feruloyl methane” (Bioorg Med Chem, 2018).
pIC50: −log10 of the molar value. Active and inactive are the calls of the source. No cut-off for these calls is given here.

Columns and labels:
PC-3 [1] = assay: Induction of apoptosis in human PC3 cells assessed as late apoptotic cells at 50 uM after 24 hrs by Annexin V-PE/7-AAD staining-based flow cytometric analysis (reference value: 8%); type: functional
MCF7 = assay: Antiproliferative activity against human MCF7 cells after 72 hrs by MTT assay; type: functional, cell-based; settings: MCF7, 72 h
HEK293 = assay: Antiproliferative activity against human HEK293 cells after 72 hrs by MTT assay; type: cell-based; settings: HEK293, 72 h
[2] = Antiproliferative activity against HSF cells after 72 hrs by MTT assay; type: cell-based; settings: Homo sapiens
PC-3 [3] = assay: Antiproliferative activity against human PC3 cells after 72 hrs by MTT assay; type: functional, cell-based; settings: PC-3, 72 h
A498 = assay: Antiproliferative activity against human A498 cells after 72 hrs by MTT assay; type: functional, cell-based; settings: A498, 72 h
SNB-19 = assay: Antiproliferative activity against human SNB19 cells after 72 hrs by MTT assay; type: functional, cell-based; settings: SNB-19, 72 h
M14 = assay: Antiproliferative activity against human M14 cells after 72 hrs by MTT assay; type: functional, cell-based; settings: M14, 72 h
OVCAR-4 = assay: Antiproliferative activity against human OVCAR4 cells after 72 hrs by MTT assay; type: functional, cell-based; settings: OVCAR-4, 72 h
NCI-H322M = assay: Antiproliferative activity against human NCI-H322M cells after 72 hrs by MTT assay; type: functional, cell-based
HCT-15 = assay: Antiproliferative activity against human HCT15 cells after 72 hrs by MTT assay; type: functional, cell-based; settings: HCT-15, 72 h
HCT-116 = assay: Antiproliferative activity against human HCT116 cells after 72 hrs by MTT assay; type: functional, cell-based; settings: HCT-116, 72 h
MDA-MB-231 = assay: Antiproliferative activity against human MDA-MB-231 cells after 72 hrs by MTT assay; type: functional, cell-based; settings: MDA-MB-231, 72 h
PC-3 [4] = assay: Antiproliferative activity in human PC3 cells up to 50 uM measured during 120 hrs each 15 mins by RTCA DP based cellular impedance analysis; type: functional
PC-3 [5] = assay: Antimigratory activity in human PC3 cells up to 50 uM measured during 120 hrs each 15 mins by RTCA DP based cellular impedance analysis; type: functional
PC-3 [6] = assay: Antiproliferative activity in human PC3 cells at 2 to 10 uM measured during 120 hrs each 15 mins by RTCA DP based cellular impedance analysis; type: functional, cell-based
PC-3 [7] = assay: Cell cycle arrest in human PC3 cells assessed as accumulation at G0/G1 phase at 10 uM after 72 hrs by RNase/propidium iodide staining-based flow cytometric analysis (reference value: 61 +/- 3%); type: functional
PC-3 [8] = assay: Cell cycle arrest in human PC3 cells assessed as accumulation at S phase at 10 uM after 72 hrs by RNase/propidium iodide staining-based flow cytometric analysis (reference value: 17 +/- 1%); type: functional
PC-3 [9] = assay: Cell cycle arrest in human PC3 cells assessed as accumulation at G2/M phase at 10 uM after 72 hrs by RNase/propidium iodide staining-based flow cytometric analysis (reference value: 20 +/- 3%); type: functional
PC-3 [10] = assay: Cell cycle arrest in human PC3 cells assessed as accumulation at G0/G1 phase at 70 uM after 72 hrs by RNase/propidium iodide staining-based flow cytometric analysis (reference value: 61 +/- 3%); type: functional
PC-3 [11] = assay: Cell cycle arrest in human PC3 cells assessed as accumulation at S phase at 70 uM after 72 hrs by RNase/propidium iodide staining-based flow cytometric analysis (reference value: 17 +/- 1%); type: functional
PC-3 [12] = assay: Cell cycle arrest in human PC3 cells assessed as accumulation at G2/M phase at 70 uM after 72 hrs by RNase/propidium iodide staining-based flow cytometric analysis (reference value: 20 +/- 3%); type: functional
PC-3 [13] = assay: Induction of apoptosis in human PC3 cells assessed as late apoptotic cells at 150 uM after 24 hrs by Annexin V-PE/7-AAD staining-based flow cytometric analysis (reference value: 8%); type: functional
[14] = Antioxidant activity assessed as ferric ion reducing activity at 20 to 320 umol after 20 mins by FRAP assay; type: functional
PC-3 [15] = assay: Induction of apoptosis in human PC3 cells assessed as necrotic cells at 50 uM after 24 hrs by Annexin V-PE/7-AAD staining-based flow cytometric analysis (reference value: 14%); type: functional
PC-3 [16] = assay: Induction of apoptosis in human PC3 cells assessed as early apoptotic cells at 50 uM after 24 hrs by Annexin V-PE/7-AAD staining-based flow cytometric analysis (reference value: 2%); type: functional
PC-3 [17] = assay: Induction of apoptosis in human PC3 cells assessed as viable cells at 50 uM after 24 hrs by Annexin V-PE/7-AAD staining-based flow cytometric analysis (reference value: 70%); type: functional; settings: PC-3, 24 h, read-out: Activity
PC-3 [18] = assay: Induction of apoptosis in human PC3 cells assessed as necrotic cells at 150 uM after 24 hrs by Annexin V-PE/7-AAD staining-based flow cytometric analysis (reference value: 14%); type: functional
PC-3 [19] = assay: Induction of apoptosis in human PC3 cells assessed as early apoptotic cells at 150 uM after 24 hrs by Annexin V-PE/7-AAD staining-based flow cytometric analysis (reference value: 2%); type: functional
PC-3 [20] = assay: Induction of apoptosis in human PC3 cells assessed as viable cells at 150 uM after 24 hrs by Annexin V-PE/7-AAD staining-based flow cytometric analysis (reference value: 70%); type: functional; settings: PC-3, 24 h, read-out: Activity
PC-3 [21] = assay: Induction of mitochondrial membrane potential loss in human PC3 cells assessed as fluorescence intensity at 50 uM after 24 hrs by TMRE dye-based flow cytometric analysis (reference value: 10101 +/- 853); type: functional
PC-3 [22] = assay: Induction of mitochondrial membrane potential loss in human PC3 cells assessed as fluorescence intensity at 150 uM after 24 hrs by TMRE dye-based flow cytometric analysis (reference value: 10101 +/- 853); type: functional
PC-3 [23] = assay: Induction of apoptosis in human PC3 cells assessed as intracellular ROS levels by measuring fluoresence intensity at 50 uM after 24 hrs by DCFH-DA staining-based flow cytometric analysis (reference value: 3176 +/- 398); type: functional
PC-3 [24] = assay: Induction of apoptosis in human PC3 cells assessed as intracellular ROS levels by measuring fluoresence intensity at 150 uM after 24 hrs by DCFH-DA staining-based flow cytometric analysis (reference value: 3176 +/- 398); type: functional

Structure (SMILES): COc1cc(/C=C/C(C)=O)ccc1O [DEHYDROZINGERONE]
- Activity (PC-3 [1]): 13%
- pIC50 (MCF7): 4.51
- pIC50 (HEK293): 4.19
- pIC50 [2]: 3.75
- pIC50 (PC-3 [3]): 4.17
- pIC50 (A498): 3.90
- pIC50 (SNB-19): 3.86
- pIC50 (M14): 3.26
- pIC50 (OVCAR-4): 3.86
- pIC50 (NCI-H322M): 4.02
- pIC50 (HCT-15): 4.19
- pIC50 (HCT-116): 4.15
- pIC50 (MDA-MB-231): 4.07
- inhibition (INH) (PC-3 [4]): 47%
- inhibition (INH) (PC-3 [5]): 78%
- Activity (PC-3 [6]): inactive
- Activity (PC-3 [7]): 60%
- Activity (PC-3 [8]): 18%
- Activity (PC-3 [9]): 21%
- Activity (PC-3 [10]): 49%
- Activity (PC-3 [11]): 17%
- Activity (PC-3 [12]): 31%
- Activity (PC-3 [13]): 16%
- Activity [14]: Active
- Activity (PC-3 [15]): 13%
- Activity (PC-3 [16]): 3%
- viability at 50 µM (PC-3 [17]): 70%
- Activity (PC-3 [18]): 16%
- Activity (PC-3 [19]): 3%
- viability at 150 µM (PC-3 [20]): 64%
- Flu intensity (PC-3 [21]): 7701
- Flu intensity (PC-3 [22]): 7859
- Flu intensity (PC-3 [23]): 2024
- Flu intensity (PC-3 [24]): 7502
